The source of these data is patent US20180193361A1, “GUT ANTI-INFLAMMATORY AGENTS FOR REGULATION OF HIGH BLOOD GLUCOSE LEVELS” (UNIVERSITY HEALTH NETWORK, priority 2015, published 2018).

The test system of test [1] is intestinal epithelial barrier. Description: Gut permeability assay (FD4). As to conditions: HFD vs HFD 5-ASA, 12-16 weeks of diet, 4 hours after gavage. Format: in vivo, mice. On the procedure: We measured gut permeability in overnight fasted mice 4 hours after oral gavage with 0.4 mg/g of FITC-conjugated dextran (Sigma) as described (Dong et al., 2014).
Test [2] deals with C57BL/6 mice on HFD with established metabolic disease. Description: Treatment of established obesity-associated IR (switch to HFD 5-ASA after 8 weeks HFD). The test is classed as in vivo. As to conditions: 8 weeks HFD then 8 weeks HFD 5-ASA (1500 mg/kg/day) vs HFD only. On the procedure:
(§1) Mice. Mice were fed either NCD (15 kcal % fat) or HFD (Research Diets, 60 kcal % fat, irradiated) starting at 6 weeks of age. All studies were performed under the approval of Animal User Protocols by the Animal Care Committee at the University Health Network. Mice were maintained in a pathogen-free, temperature-controlled environment on a 12-hour light and dark cycle. All mice used in comparative studies were male, age-matched, and litter mates where possible. […] We confirmed T cell-specific floxing of the PPARγ gene in Lck-Cre+ PPARγfl/fl mice by qPCR with a minimum of at least 90% reduction in PPARγ expression. […] We measured body weights, GTTs, ITTs, serum insulin, and fat cell diameter as previously described (Winer et al., 2009a). All GTTs were performed with a 1.5 g/kg glucose i.p. injection unless indicated otherwise.

Test [3] has as its system Beta7null mice. Description: Metabolic studies, Beta7null mice on HFD 5-ASA. Format: in vivo. As to conditions: HFD vs HFD 5-ASA, 12 weeks. As to the method:
(§2) Mice. Mice were fed either NCD (15 kcal % fat) or HFD (Research Diets, 60 kcal % fat, irradiated) starting at 6 weeks of age. All studies were performed under the approval of Animal User Protocols by the Animal Care Committee at the University Health Network. Mice were maintained in a pathogen-free, temperature-controlled environment on a 12-hour light and dark cycle. All mice used in comparative studies were male, age-matched, and litter mates where possible.
(§3) We measured body weights, GTTs, ITTs, serum insulin, and fat cell diameter as previously described (Winer et al., 2009a). All GTTs were performed with a 1.5 g/kg glucose i.p. injection unless indicated otherwise.

Test [4] has as its system HFD-fed C57BL/6 mice. In words: Metabolic studies, mice fed HFD or HFD 5-ASA from 6 weeks of age (preventative). The test is classed as in vivo. On the procedure: as §1, with “otherwise. We fixed VAT, colons and small bowel ileums, from mice for 48 h in 10% buffered formalin before processing and hematoxylin/eosin staining. We enumerated crown-like structures (CLSs) in VAT by counting the number of adipocytes completely surrounded by immune cells identified on hematoxylin/eosin staining per 100× low power field. Analysis of histochemical stains was performed in a blinded fashion by two certified pathologists (S.W. and D.W.).” for “otherwise.”

The subject of test [5] is Rag1null mice. Description: Metabolic studies, Rag1null mice on HFD 5-ASA. The test is classed as in vivo. As to conditions: HFD vs HFD 5-ASA 1500 mg/kg/day, 8 weeks. As to the method:
as §2, §3

Test [6] concerns the target T1, PPARγ (Mus musculus, UniProt P37238).
T1 construct: from tissue; host or cells: purified small bowel T cells of HFD or HFD 5-ASA-fed mice (nuclear extracts)
Description: PPARγ activity assay in small bowel T cell nuclear extracts. Format: in vivo. As to conditions: purified small bowel T cells, mice fed HFD 5-ASA vs control HFD. The text has this:
We measured PPARγ functional activity in T cell nuclear extracts using a PPARγ transcription factor binding assay following vendor's instructions (ThermoScientific and Cayman Chemical Company). This ELISA-based assay is precoated with dsDNA containing the peroxisome proliferator response element (PPRE). PPARγ in the isolated nuclear extracts bind to PPRE. As per vendor's recommendations, this assay is specific to PPARγ and not to other PPARs (i.e., α or δ).

In test [7] the test system is small bowel dendritic cells. In words: DC-T cell co-culture, 5-ASA pre-treated small bowel dendritic cells with OT-II T cells. Format: cell-based, mice. As to conditions: DCs pre-treated with 0.1 or 1.0 mM 5-ASA 24 hours, OVA323-339 peptide, 48 hours. On the procedure:
To measure the effect of IFNγ on tight-junction gene expression, we treated MODE-K cells with recombinant mouse IFNγ (Biolegend). We purified bulk dendritic cells and T cells from murine small bowels and spleens using a negative selection DC or T cell isolation kit (Stem Cell Technologies). We plated T cells at 5×10^5 cells/well with plate-bound anti-CD3/CD28 (1 μg/ml, Biolegend). […] We collected supernatants for cytokine measurements after 72 hour incubation. […] After 24 hours, we washed the cells with PBS and co-cultured them (1×10^4 cells/well) with OVA323-339 peptide and OT-II splenic or small bowel T cells (5×10^4 cells/well) for 48 hours. Supernatants were collected at 48 hours for cytokine measurement.

The mark [8] stands for this setting: HFD vs HFD 5-ASA 1500 mg/kg/day in diet, after 12-14 weeks.
Where [9] appears, read: HFD vs HFD 5-ASA 1500 mg/kg/day, 14 weeks.

T1 sequence (P37238 whole entry): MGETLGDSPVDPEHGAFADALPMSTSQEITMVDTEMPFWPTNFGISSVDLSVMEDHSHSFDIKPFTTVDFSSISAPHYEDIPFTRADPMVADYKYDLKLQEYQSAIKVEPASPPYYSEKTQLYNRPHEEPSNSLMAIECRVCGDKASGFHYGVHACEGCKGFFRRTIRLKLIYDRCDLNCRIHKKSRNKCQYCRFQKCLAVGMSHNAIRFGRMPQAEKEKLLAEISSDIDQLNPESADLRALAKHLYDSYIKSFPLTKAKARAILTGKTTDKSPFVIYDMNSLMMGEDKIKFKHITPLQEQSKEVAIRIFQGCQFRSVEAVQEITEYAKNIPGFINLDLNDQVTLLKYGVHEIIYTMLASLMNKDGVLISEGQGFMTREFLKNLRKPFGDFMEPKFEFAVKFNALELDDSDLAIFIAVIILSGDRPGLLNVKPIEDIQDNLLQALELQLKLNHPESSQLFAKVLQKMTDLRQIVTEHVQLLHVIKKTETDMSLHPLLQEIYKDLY

Take `Nc1ccc(O)c(C(=O)O)c1` [5-ASA, 5-aminosalicylic acid]: the “intestinal epithelial barrier permeability (plasma FD4)” value in test [1] was “significant improvements”. Moreover, in test [2], the body weight result was “did not change”, the glucose tolerance result is on record as “significant improvements” and the insulin tolerance result was “significant improvements”. In test [3], the IR entry was “no major effects” and the glucose tolerance entry is given as “no major effects”. For the same compound, the glucose tolerance result in test [4] (5-ASA dose range 150 mg/kg/day up to 1500 mg/kg/day in mice) was “beneficial effects”. The liver steatosis entry in test [4] (HFD vs HFD 5-ASA 1500 mg/kg/day in diet) is recorded as “reduced”. Further, in test [4] (setting [8]), the VAT weight result was “no significant difference”, the adipocyte size result was “no significant difference”, the body weight entry is “no significant difference” and the “number of crown-like structures in VAT” value is “no significant difference”. Also, the organ weights result in test [4] (setting [8]) is recorded as “no significant difference”. For the same compound, in test [4] (setting [9]), the fasting glucose result is reported as “significant improvements”, the fasting insulin entry is recorded as “significant improvements”, the “glucose tolerance (GTT)” value was “significant improvements” and the “insulin tolerance (ITT)” value was “significant improvements”. Moreover, the “effects on metabolic disease (GTT, ITT)” value in test [4] (lower dose 150 mg/kg/day in HFD, 24 weeks) is reported as “beneficial effects”. In test [5], the IR result is “no effect”, the body weight entry is given as “no effect” and the glucose tolerance entry is “no effect”. Further, the PPARγ functional activity entry in test [6] is reported as “increased”. Further, the “IFNγ levels from OT-II CD4+ T cells” value in test [7] is “reduced”.
